The test system of one series is SARS-CoV-2. The following applies: cited from earlier work.
For series [1], the target named is T1, NTF2L domain of G3BP1 (residues 1–138) (Homo sapiens, UniProt Q13283).
T1 construct: 6xHis tag with TEV protease cleavage site (N, cleaved yes); made in house; host or cells: Escherichia coli BL21 (DE3)
Briefly: Isothermal titration calorimetry (ITC) of peptides with NTF2L. It counts as binding. The following applies: for n, molar ratio: 20°C.

The test system of series [2] is NTF2L domain of G3BP1. As to the kind of experiment: SEC-MALS of peptide–NTF2L complexes. Format: physicochemical, human. The following applies: ~2 mg/mL in PBS pH 7.4, Superdex 200 Increase 10/300 GL; for M.W., molecular weight of the peptide–NTF2L complex: 0.5 mL/min, value given in figure. On the technique in general: Size exclusion chromatography separates by hydrodynamic size, large species first.

The subject of series [3] is NTF2L domain of G3BP1. As to the kind of experiment: Size-exclusion chromatography (SEC) of NTF2L incubated with peptide: high-order oligomer formation. It counts as binding, human. The following applies: peptide mixed with NTF2L, incubated at 4°C overnight, Superdex 200 Increase 10/300 GL.
The next series has as its system endogenous G3BP1. As to the kind of experiment: Co-immunoprecipitation with endogenous G3BP1 in HEK293T cells. It counts as cell-based. The following applies: Co-IP, Flag magnetic beads, HEK293T cells lysed 36 h after transfection (3xFlag-mCherry constructs). On the procedure: HEK293T cells were seeded into a six-well cell culture plate and then transfected with the recombinant plasmids using TransIntro PEI Transfection Reagent (TransGen Biotech, FT401-01). Thirty-six hours after transfection, the cells were lysed with cell lysis buffer (Beyotime, P0013J) supplemented with proteinase inhibitor phenylmethylsulfonyl fluoride (Solarbio, P8340). Cell lysates were then centrifuged, and the supernatants were immunoprecipitated with Flag magnetic beads (LABLEAD, PFM025). Beads were washed three times with washing buffer (50 mM Tris-HCl, 500 mM NaCl, 0.1% Triton X-100, 1 mM EDTA, pH 7.5). Cell lysates or immunoprecipitants were analyzed with immunoblotting.
The proteins were then transferred to polyvinylidene fluoride membranes. Membranes were blocked for 4 h with 5% non-fat dry milk solution in Tris-buffered saline containing 0.1% Tween-20 (TBST) and then incubated with primary antibodies mouse anti-G3BP1 (Santa Cruz, sc-365338), mouse anti-Flag (Proteintech, 66008-4-Ig), and rabbit anti-β-actin (Proteintech, 81115-1-RR) overnight at 4°C. The membranes were washed with TBST and then incubated with the corresponding secondary antibodies. Proteins were visualized by SuperKine West Femto Maximum Sensitivity Substrate according to the manufacturer’s instruction (Abbkine, BMU102).

Another series deals with lung cancer cell. The following applies: through targeting G3BP1; cited from earlier work.

This is an account of results in PMC12077208 (mBio, 2025).

T1 sequence (Q13283 1-138): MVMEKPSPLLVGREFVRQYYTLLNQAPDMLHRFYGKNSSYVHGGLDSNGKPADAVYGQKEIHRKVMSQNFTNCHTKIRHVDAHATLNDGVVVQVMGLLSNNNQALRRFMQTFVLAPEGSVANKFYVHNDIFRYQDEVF

As for `Cc1ccc(NC(=O)c2ccc(CN3CCN(C)CC3)cc2)cc1Nc1nccc(-c2cccnc2)n1` [imatinib], in the series with SARS-CoV-2, the “inhibition of SARS-CoV-2 propagation” value is given as “inhibit SARS-CoV-2 propagation”.
In the case of `Nc1ncn([C@H]2C[C@H](O)[C@@H](CO)O2)c(=O)n1` [decitabine], in the series on SARS-CoV-2, the “inhibition of SARS-CoV-2 propagation” value is recorded as “inhibit SARS-CoV-2 propagation”.
`CC[C@H](C)[C@H](NC(=O)[C@H](CCC(=O)O)NC(=O)CNC(=O)[C@H](CC(=O)O)NC(=O)[C@H](CC(N)=O)NC(=O)[C@H](Cc1ccccc1)NC(=O)[C@H](CC(=O)O)NC(=O)CNC(=O)[C@H](Cc1ccccc1)NC(=O)[C@@H](NC(=O)[C@@H](NC(=O)[C@@H]1CCCN1C(=O)[C@H](Cc1ccccc1)NC(=O)[C@@H](NC(=O)[C@H](CCC(=O)O)NC(=O)[C@H](CO)NC(=O)CNC(=O)[C@H](CC(C)C)NC(=O)[C@@H]1CCCN1C(=O)CN)[C@@H](C)O)[C@@H](C)CC)[C@@H](C)O)C(=O)N[C@@H](CCC(=O)O)C(=O)N[C@@H](CO)C(=O)N[C@@H](CC(C)C)C(=O)N[C@@H](CO)C(=O)N[C@@H](CO)C(=O)N[C@@H](CCC(=O)O)C(=O)N[C@@H](CC(C)C)C(=O)N[C@@H](CC(C)C)C(=O)N[C@H](C(=O)N[C@@H](Cc1ccccc1)C(=O)NCC(=O)N[C@@H](CC(=O)O)C(=O)N[C@@H](Cc1ccccc1)C(=O)N[C@@H](CC(C)C)C(=O)N1CCC[C@H]1C(=O)NCC(=O)N[C@@H](CCC(=O)O)C(=O)N[C@H](C(=O)N[C@@H](CC(=O)O)C(=O)N[C@@H](CC(=O)O)C(=O)N[C@@H](CC(C)C)C(=O)N[C@H](C(=O)N[C@@H](CC(=O)O)C(=O)N[C@@H](CO)C(=O)N[C@@H](CC(=O)O)C(=O)N[C@@H](Cc1c[nH]c2ccccc12)C(=O)N[C@@H](CO)C(=O)N[C@H](C(=O)N[C@@H](Cc1c[nH]cn1)C(=O)N[C@@H](Cc1c[nH]cn1)C(=O)N[C@@H](Cc1c[nH]cn1)C(=O)N[C@@H](Cc1c[nH]cn1)C(=O)N[C@@H](Cc1c[nH]cn1)C(=O)N[C@@H](Cc1c[nH]cn1)C(=O)O)[C@@H](C)O)[C@@H](C)O)C(C)C)[C@@H](C)O` [CHIKV-43]: in series [1] (HEPES buffer pH 7.5, 50 µM peptide injected into 10 µM NTF2L), the “n, molar ratio” value is reported as 0.6 ± 0.002. For the same compound, in the series with NTF2L domain of G3BP1 [2], the “M.W., molecular weight of the peptide–NTF2L complex” value came out at 314.1 ± 0.28 kDa. For the same compound, the “approximate M.W. of the peptide–NTF2L complex” value in the series with NTF2L domain of G3BP1 [2] (rounded value of text) is listed as “approximately 310 kDa”. Moreover, the “SEC peak / high-order oligomer formation with NTF2L” value in the series with NTF2L domain of G3BP1 [3] is listed as “formed a stable peak”. For the same compound, the “interaction with endogenous G3BP1” value in the series with endogenous G3BP1 is given as “obviously interact with G3BP1”.
Consider `O=C(O[C@@H]1Cc2c(O)cc(O)cc2O[C@@H]1c1cc(O)c(O)c(O)c1)c1cc(O)c(O)c(O)c1` [Epigallocatechin gallate], for which the “effect on lung cancer cell growth” value in the series on lung cancer cell is on record as “inhibits lung cancer cell growth”.
With `CC[C@H](C)[C@H](NC(=O)[C@H](CCC(=O)O)NC(=O)CNC(=O)[C@H](CC(=O)O)NC(=O)[C@H](CC(N)=O)NC(=O)[C@H](Cc1ccccc1)NC(=O)[C@H](CC(=O)O)NC(=O)CNC(=O)[C@H](Cc1ccccc1)NC(=O)[C@@H](NC(=O)[C@@H](NC(=O)[C@@H]1CCCN1C(=O)[C@H](Cc1ccccc1)NC(=O)[C@@H](NC(=O)[C@H](CCC(=O)O)NC(=O)[C@H](CO)NC(=O)CNC(=O)[C@H](CC(C)C)NC(=O)[C@@H]1CCCN1C(=O)CN)[C@@H](C)O)[C@@H](C)CC)[C@@H](C)O)C(=O)N[C@@H](CCC(=O)O)C(=O)N[C@@H](CO)C(=O)N[C@@H](CC(C)C)C(=O)N[C@@H](CO)C(=O)N[C@@H](CO)C(=O)N[C@@H](CCC(=O)O)C(=O)N[C@@H](CC(C)C)C(=O)N[C@@H](CC(C)C)C(=O)N[C@H](C(=O)N[C@@H](Cc1ccccc1)C(=O)NCC(=O)N[C@@H](CC(=O)O)C(=O)N[C@@H](Cc1ccccc1)C(=O)N[C@@H](CC(C)C)C(=O)N1CCC[C@H]1C(=O)NCC(=O)N[C@@H](C)C(=O)N[C@H](C(=O)N[C@@H](C)C(=O)N[C@@H](CC(=O)O)C(=O)N[C@@H](CC(C)C)C(=O)N[C@H](C(=O)N[C@@H](CC(=O)O)C(=O)N[C@@H](CO)C(=O)N[C@@H](CC(=O)O)C(=O)N[C@@H](Cc1c[nH]c2ccccc12)C(=O)N[C@@H](CO)C(=O)N[C@H](C(=O)N[C@@H](Cc1c[nH]cn1)C(=O)N[C@@H](Cc1c[nH]cn1)C(=O)N[C@@H](Cc1c[nH]cn1)C(=O)N[C@@H](Cc1c[nH]cn1)C(=O)N[C@@H](Cc1c[nH]cn1)C(=O)N[C@@H](Cc1c[nH]cn1)C(=O)O)[C@@H](C)O)[C@@H](C)O)C(C)C)[C@@H](C)O` [CHIKV-43 mut], the “n, molar ratio” value in series [1] (HEPES buffer pH 7.5, 200 µM peptide injected into 40 µM NTF2L) turned out to be 0.6 ± 0.02. Further, in series [1] (compared to that of CHIKV-43 with NTF2L), the “fold reduction of binding affinity with NTF2L” value is on record as ~ 15 fold. For the same compound, the “M.W., molecular weight of the peptide–NTF2L complex” value with NTF2L domain of G3BP1 [2] came out at 58.7 ± 0.42 kDa.
